“And” between values parts separate entries of the source, which are not always exact repeats. Equal values may be shown once. Read-outs that look alike come from different tables or passages of the source.
How the values were obtained:
HELA cell line = assay: SRB cytotoxicity assay, HELA cervical cancer cell line; settings: Homo sapiens, HeLa, 72 h
Protocol: (§1) All reagents and chemicals of analytical grade were obtained from Sigma (Dorset, UK); unless stated otherwise. All chemicals, reagents and solvents (of analytical grade) were used directly without further purification. MCF7 cell line ATCC® HTB-22™, T47D cell line ATCC® HTB-133™, K562 cell line ATCC® CCL-243™, Panc1 cell line ATCC® CRL-1469™. A375.S2 cell line ATCC® CRL-1872™, A549 cell line ATCC® CCL-185™, HELA cell line ATCC® CCL-2™ were cultured in Dulbecco’s modified eagle’s medium (DMEM). (DMEM) containing foetal bovine serum (FBS) (Bio Whittaker, Verviers, Belgium), 4-(2-hydroxyethyl)-1-piperazine ethane sulfonic acid (HEPES) Buffer, L-glutamine, gentamicin, penicillin, and streptomycin sulphate (Sigma, St. Luis, MO, USA), trypsin, trypan blue, Ciprofloxacin HCl from Aarti drugs Ltd/India, was a kind gift from Pharma International Company- Amman; Fluconazole from Neopharma, United Arab Emirates, a kind gift from Pharmaceutical Research Unit, Amman; Trypon soya agar (TSA), trypon soya broth (TSB), sabouraud dextrose agar (SDA) were obtained from Liofilchem (Italy) or Oxoid LTD (Basingstoke, England), they were reconstituted and sterilized by autoclave at 121 °C for 15 min.
(§2) The cytotoxicity measurements were determined using Sulforhodamine B (SRB) colorimetric assay for cytotoxicity screening. The mechanism of reduction of cell viability was adopted as described previously (Arabiyat et al., 2016a,b; 2017; Alabsi et al., 2018; Jumah, 2018; AlShahrabi et al., 2020). Human periodontal ligament fibroblasts (PDL) are a primary normal cell culture for verification of selective cytotoxicity. […] Selectivity ratio as indicative factor of the safety of compounds was calculated by dividing IC50 of tested compound on normal fibroblasts by IC50 of the same compound on specific pathological cell line (Hoffman et al., 2011).

T47D cell line = assay: cells; settings: Homo sapiens, T47D, 72 h, read-out: Cytotoxicity IC50 value, T47D cell line
Protocol: as §1, §2

MCF7 cell line = assay: SRB cytotoxicity assay, MCF7 breast cancer cell line; settings: Homo sapiens, MCF7, 72 h, read-out: Cytotoxicity IC50 value, MCF7 cell line
Protocol: as §1, §2

K562 cell line = assay: SRB cytotoxicity assay, K562 leukaemia cell line; settings: Homo sapiens, K562, 72 h
Protocol: as §1, §2

A375.S2 cell line = assay: SRB cytotoxicity assay, A375.S2 melanoma cell line; settings: Homo sapiens, A375-S2, 72 h, read-out: Cytotoxicity IC50 value, A375.S2 cell line
Protocol: as §1, §2

PDL Fibroblasts = assay: SRB cytotoxicity on normal periodontal ligament fibroblasts, selective cytotoxicity; format: cell-based, Human; settings: for IC50: Homo sapiens, Fibroblast, normal fibroblasts, SRB, 72 h, mean ± SD; for Selectivity index SI (A562): IC50 on PDL fibroblasts divided by IC50 on the cell line printed as A562
Protocol: as §2

PANC 1 cell line = assay: SRB cytotoxicity assay, PANC 1 pancreatic cancer cell line; settings: Homo sapiens, PANC-1, 72 h, read-out: Cytotoxicity IC50 value, PANC 1 cell line
Protocol: as §1, §2

A549 cell line = assay: SRB cytotoxicity assay, A549 lung cancer cell line; settings: Homo sapiens, A549, 72 h, read-out: Cytotoxicity IC50 value, A549 cell line
Protocol: as §1, §2

[1] = read-out: Cytotoxicity IC50 value, HELA cell line, SRB, 72 h, 0.1-200 μg/mL range, mean ± SD, value in brackets
[2] = read-out: Cytotoxicity IC50 value, HELA cell line, SRB, 72 h, 0.1-200 μg/mL range, mean ± SD, NI = lack of cytotoxicity in range
[3] = read-out: Cytotoxicity IC50 value, K562 cell line, SRB, 72 h, 0.1-200 μg/mL range, mean ± SD, value in brackets
[4] = read-out: Cytotoxicity IC50 value, K562 cell line, SRB, 72 h, 0.1-200 μg/mL range, mean ± SD, NI = lack of cytotoxicity in range
[5] = 0.1-200 μg/mL range, NI = lack of cytotoxicity in range

## COc1ccccc1Nc1c(F)cc2c(=O)c(C(=O)O)cn(C3CC3)c2c1N [4a, 8-amino-1-cyclopropyl-6-fluoro-7-(2-methoxy-phenylamino)-4-oxo-1,4-dihydro-quinoline-3-carboxylic acid]
HELA cell line; [1]
  IC50: 15.5 µg/mL
HELA cell line; [2]
  IC50: 40.4 ± 6.03 µM
T47D cell line
  IC50: 95.8 µM and 36.8 µg/mL
MCF7 cell line
  IC50: > 200 µg/mL
K562 cell line; [3]
  IC50: 16.9 µg/mL
K562 cell line; [4]
  IC50: 44 ± 3.88 µM
A375.S2 cell line
  IC50: 72.3 µM and 27.8 µg/mL
PDL Fibroblasts; [5]
  IC50: 140 ± 10.5 µM
PDL Fibroblasts; value in brackets
  IC50: 53.8 µg/mL
PDL Fibroblasts; IC50 on PDL fibroblasts divided by IC50 on HELA
  Selectivity index SI (HELA): 3.46
PANC 1 cell line
  IC50: 113 µM and 43.4 µg/mL
A549 cell line
  IC50: 153 µM and 58.7 µg/mL

## COc1ccc(Nc2c(F)cc3c(=O)c(C(=O)O)cn(C4CC4)c3c2N)cc1 [4c, 8-amino-1-cyclopropyl-6-fluoro-7-(4-methoxy-phenylamino)-4-oxo-1,4-dihydro-quinoline-3-carboxylic acid]
HELA cell line; [1]
  IC50: 97.8 µg/mL
HELA cell line; [2]
  IC50: 255 ± 2.15 µM
T47D cell line
  IC50: 77.2 µM and 29.6 µg/mL
MCF7 cell line
  IC50: 57.4 µM and 22 µg/mL
K562 cell line; [3]
  IC50: 20 µg/mL
K562 cell line; [4]
  IC50: 52.1 ± 6.9 µM
A375.S2 cell line
  IC50: 248 µM and 95 µg/mL
PDL Fibroblasts; [5]
  IC50: 138 ± 8.26 µM
PDL Fibroblasts; value in brackets
  IC50: 53 µg/mL
PDL Fibroblasts
  Selectivity index SI (A562): 27.07
PANC 1 cell line
  IC50: 72.1 µM and 27.6 µg/mL
A549 cell line
  IC50: 5.11 µM and 1.96 µg/mL

## CCc1ccc(Nc2c(F)cc3c(=O)c(C(=O)O)cn(C4CC4)c3c2N)cc1 [4d, 8-Amino-1-cyclopropyl-6-fluoro-7-(4-ethyl-phenylamino)-4-oxo-1,4-dihydro-quinoline-3-carboxylic acid]
HELA cell line; [1]
  IC50: 51.7 µg/mL
HELA cell line; [2]
  IC50: 136 ± 4.58 µM
T47D cell line
  IC50: 53.7 µM and 20.5 µg/mL
MCF7 cell line
  IC50: 21.3 µM and 8.14 µg/mL
K562 cell line; [3]
  IC50: 15.9 µg/mL
K562 cell line; [4]
  IC50: 41.8 ± 4.98 µM
A375.S2 cell line
  IC50: 47 µM and 17.9 µg/mL
PDL Fibroblasts; [5]
  IC50: 50.4 ± 4.28 µM
PDL Fibroblasts; value in brackets
  IC50: 19.2 µg/mL
PDL Fibroblasts
  Selectivity index SI (A562): 2.49
PANC 1 cell line
  IC50: 65.3 µM and 24.9 µg/mL
A549 cell line
  IC50: 20.2 µM and 7.72 µg/mL

## CCCCCCc1ccc(Nc2c(F)cc3c(=O)c(C(=O)O)cn(C4CC4)c3c2N)cc1 [4f, 8-Amino-1-cyclopropyl-6-fluoro-7-(4-hexyl-phenylamino)-4-oxo-1,4-dihydro-quinoline-3-carboxylic acid]
HELA cell line; [1]
  IC50: 13.4 µg/mL
HELA cell line; [2]
  IC50: 30.7 ± 3.79 µM
T47D cell line
  IC50: 308 µM and 135 µg/mL
MCF7 cell line
  IC50: 300 nM and 0.13 µg/mL
K562 cell line; [3]
  IC50: 30.4 µg/mL
K562 cell line; [4]
  IC50: 69.4 ± 6.64 µM
A375.S2 cell line
  IC50: 244 µM and 107 µg/mL
PDL Fibroblasts; [5]
  IC50: 352 ± 7.36 µM
PDL Fibroblasts; value in brackets
  IC50: 154 µg/mL
PDL Fibroblasts; IC50 on PDL fibroblasts divided by IC50 on PANC 1
  Selectivity index SI (PANC 1): 3199.45
PANC 1 cell line
  IC50: 110 nM and 0.05 µg/mL
A549 cell line
  IC50: 204 µM and 89.5 µg/mL

## COc1cccc(-n2nnc3c4c(cc(F)c32)c(=O)c(C(=O)O)cn4C2CC2)c1 [5b, 9-cyclopropyl-4-fluoro-3-(3-methoxy-phenyl)-6-oxo-6,9-dihydro-3H-[1,2, and 3] triazolo [4,5-h] quinoline-7-carboxylic acid]
HELA cell line; [1]
  IC50: 26.3 µg/mL
HELA cell line; [2]
  IC50: 66.9 ± 2.73 µM
T47D cell line
  IC50: 18 µM and 7.08 µg/mL
MCF7 cell line
  IC50: 112 µM and 44.2 µg/mL
K562 cell line; [3]
  IC50: 4.56 µg/mL
K562 cell line; [4]
  IC50: 11.6 ± 0.61 µM
A375.S2 cell line
  IC50: 364 µM and 143 µg/mL
PDL Fibroblasts; [5]
  IC50: 143 ± 10.8 µM
PDL Fibroblasts; value in brackets
  IC50: 56.4 µg/mL
PDL Fibroblasts; IC50 on PDL fibroblasts divided by IC50 on K562
  Selectivity index SI (K562): 12.35
PANC 1 cell line
  IC50: 178 µM and 70.2 µg/mL
A549 cell line
  IC50: 196 µM and 77.2 µg/mL
